For one data set, the system named is Rattus norvegicus. Briefly: Reduction of serum creatinine level in rat anti-glomerular basement membrane glomerulonephritis model at 30 mg/kg, po qd administered for 3 weeks. Format: functional, organism-based. The arrangement: dose 30 mg/kg.
Data set [1] is described as follows: Oral bioavailability in rat at 1 mg/kg. Format: ADME, organism-based. As to conditions: in vivo.
Data set [2] can be described thus: Tmax in rat at 1 mg/kg, po. Format: ADME, organism-based. The arrangement: dose 1 mg/kg, route oral. As to conditions: in vivo.
Data set [3] is described as follows: AUC (0 to infinity) in rat at 1 mg/kg, po. Also on record: time infinity, dose 1 mg/kg, route oral. The note with it: plasma. Format: ADME, organism-based.
A short description of data set [4]: Cmax in rat at 1 mg/kg, po. The arrangement: dose 1 mg/kg, route oral. Format: ADME, organism-based. The note with it: in vivo.
Data set [5] can be described thus: Total clearance in rat at 0.2 mg/kg, iv. Format: ADME, organism-based. As to conditions: in vivo. The arrangement: dose 0.2 mg/kg, route intravenous.
A short description of data set [6]: Volume of distribution at steady state in rat at 0.2 mg/kg, iv. The arrangement: dose 0.2 mg/kg, route intravenous. The note with it: in vivo, read-out: Vdss. Format: ADME, organism-based.
Data set [7] can be described thus: Half life in rat at 0.2 mg/kg, iv. The arrangement: dose 0.2 mg/kg, route intravenous. Format: ADME, organism-based. The note with it: in vivo.
A short description of data set [8]: AUC (0 to infinity) in rat at 0.2 mg/kg, iv. Format: ADME, organism-based. Also on record: time infinity, dose 0.2 mg/kg, route intravenous. The note with it: plasma.
Data set [9] is described as follows: Drug uptake in rat at 0.2 mg/kg, iv at 5 mins. Format: ADME, organism-based. Also on record: dose 0.2 mg/kg, route intravenous. As to conditions: in vivo, read-out: Drug uptake.
A further data set concerns Liver microsome. Briefly: Metabolic stability in human liver microsomes measured per mg of protein. Format: ADME. On the technique in general: Liver microsomes are vesicles of endoplasmic reticulum, rich in cytochrome P450 enzymes.
Data set [10] is described as follows: Solubility of the compound in simulated gastric fluid compliant with Japanese pharmacopeia. Format: ADME.
Data set [11] is described as follows: Solubility of the compound in simulated intestinal fluid compliant with Japanese pharmacopeia. Format: ADME.
For data set [12], the target named is T1, Bifunctional epoxide hydrolase 2 (Rattus norvegicus, UniProt P80299).
T1 sequence (P80299 whole entry): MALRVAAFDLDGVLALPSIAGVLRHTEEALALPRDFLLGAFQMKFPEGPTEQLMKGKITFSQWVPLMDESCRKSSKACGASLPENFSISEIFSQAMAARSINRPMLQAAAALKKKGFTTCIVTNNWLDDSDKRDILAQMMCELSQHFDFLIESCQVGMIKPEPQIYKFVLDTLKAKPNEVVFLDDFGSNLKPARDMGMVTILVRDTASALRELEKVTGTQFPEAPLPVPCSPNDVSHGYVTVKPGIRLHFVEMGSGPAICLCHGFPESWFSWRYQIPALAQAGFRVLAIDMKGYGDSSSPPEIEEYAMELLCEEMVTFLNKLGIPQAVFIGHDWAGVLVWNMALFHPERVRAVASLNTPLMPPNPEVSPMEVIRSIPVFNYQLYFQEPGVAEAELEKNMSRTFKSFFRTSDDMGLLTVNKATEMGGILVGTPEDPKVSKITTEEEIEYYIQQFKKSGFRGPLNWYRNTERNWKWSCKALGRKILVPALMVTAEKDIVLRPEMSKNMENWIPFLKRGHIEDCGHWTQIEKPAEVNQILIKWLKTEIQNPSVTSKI
The experiment in a line: Inhibition of rat recombinant sEH expressed in baculovirus infected insect Sf9 cells using cyano(6-methoxynaphthalen-2-yl)methyl trans-[(3-phenyloxiran-2-yl)methyl] carbonate as substrate preincubated for 30 mins followed by substrate addition measured after 20 to 45 mins by fluorescence assay.

Data set [13] concerns the target T2, Bifunctional epoxide hydrolase 2 (Homo sapiens, UniProt P34913).
T2 sequence (P34913 whole entry): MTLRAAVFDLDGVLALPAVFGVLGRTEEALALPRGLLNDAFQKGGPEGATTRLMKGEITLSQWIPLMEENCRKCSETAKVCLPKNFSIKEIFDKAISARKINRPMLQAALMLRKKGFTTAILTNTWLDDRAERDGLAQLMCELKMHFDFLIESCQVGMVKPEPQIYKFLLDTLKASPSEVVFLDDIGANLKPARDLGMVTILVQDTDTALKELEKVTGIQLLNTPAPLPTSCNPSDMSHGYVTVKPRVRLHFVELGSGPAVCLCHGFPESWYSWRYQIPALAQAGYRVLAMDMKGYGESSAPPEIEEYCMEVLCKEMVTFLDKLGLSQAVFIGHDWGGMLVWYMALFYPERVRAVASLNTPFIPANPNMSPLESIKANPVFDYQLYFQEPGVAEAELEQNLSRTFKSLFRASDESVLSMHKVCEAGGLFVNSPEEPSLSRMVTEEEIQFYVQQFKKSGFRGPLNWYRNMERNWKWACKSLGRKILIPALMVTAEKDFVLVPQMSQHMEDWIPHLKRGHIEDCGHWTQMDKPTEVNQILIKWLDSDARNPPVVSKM
The experiment in a line: Inhibition of human recombinant sEH expressed in baculovirus infected insect Sf9 cells using cyano(6-methoxynaphthalen-2-yl)methyl trans-[(3-phenyloxiran-2-yl)methyl] carbonate as substrate preincubated for 30 mins followed by substrate addition measured after 20 to 45 mins by fluorescence assay.

The structures appear in SMILES notation. ≈ marks a conversion by molar mass, not a printed value. Calls of active or inactive are those of the source. No cut-off for these calls is given here.

Usually bioavailability stands for the share of a dose that reaches the circulation, judged against a reference dose that is usually intravenous. As a reminder, the Tmax is the time from dosing to the highest level. One may read the AUC(0-inf) as total exposure, with the tail of the curve extrapolated. The low end stands for low exposure, the high end for high exposure. A word on the Cmax: it is the maximum level reached in the sampled fluid or tissue. By clearance is commonly meant a measure of how efficiently the substance is removed, as volume per time. The low end stands for inefficient removal, the high end for efficient removal. Usually half-life stands for the time in which the quantity being followed falls by half. Low readings indicate fast loss, high ones slow loss. What is called solubility is how much of the substance goes into solution per volume. High values mean a readily soluble substance, low ones a poorly soluble substance. Usually IC50 stands for the point on the concentration scale where inhibition reaches its midpoint. As for `O=C(Nc1ccc(OC(F)(F)F)cc1)N1CCOC2(CCN(C(=O)c3ccccc3F)CC2)C1`, the result in the data set with Rattus norvegicus was Active. For the same molecule, in data set [1], the bioavailability was determined as 35.4%. Further, the Tmax in data set [2] came to 1 h. In addition, the area under the curve AUC(0-inf) in data set [3] was 306 ng·h/mL; in data set [8], 173 ng·h/mL. Further, the maximum concentration (Cmax) in data set [4] came out at 20.4 ng/mL. Also, in data set [5], the clearance is 19.3 mL/min/kg. The Vd in data set [6] worked out at 3.56 L/kg. In [7], this molecule gave a half-life of 2.63 h. Besides, in data set [9], the concentration at 5 min stood at 71 ng/mL. The same molecule came in with a CLint in the data set on Liver microsome of 30 µL/min/mg. Besides, the solubility in [10] was 71 µg/mL (≈ 147 µM); in data set [11], 62 µg/mL (≈ 129 µM). In addition, the IC50 was 9.3 nM in data set [12] and 1.1 nM in [13].

The values are drawn from ChEMBL document CHEMBL3102795, “Discovery of 1-oxa-4,9-diazaspiro[5.5]undecane-based trisubstituted urea derivatives as highly potent soluble epoxide hydrolase inhibitors and orally active drug candidates for treating of chronic kidney diseases” (Bioorg Med Chem Lett, 2014).
